According to EPA's ToxValDB 9.5 (doi:10.2903/j.efsa.2009.174r):

Tests used:
Rattus norvegicus = settings: acute; oral; mortality
Canidae = settings: oral, Dog Other
Cyprinus carpio = settings: acute; duration: 96 hours; mortality
Aphidius rhopalosiphi = settings: not reported; mortality
Anas platyrhynchos = settings: acute, oral, unspecified
Zea sp. = settings: chronic/long-term
Homo sapiens = settings: clinical; oral; capsule; clinical signs
[1] = reproductive
Daphnia magna = settings: chronic/long-term; duration: 21 days; reproduction
Apis mellifera = settings: acute; duration: 48 hours; dermal; mortality
Colinus virginianus = settings: oral; for LD50: acute, mortality
Coturnix japonica = settings: reproduction developmental; duration: 6 weeks
Landoltia sp. = settings: chronic/long-term; duration: 14 days
Pimephales promelas = settings: chronic/long-term; duration: 34 days; reproduction

O=P(O)(O)CCCl [Ethephon]
LD50 (Rattus norvegicus): 1560 mg/kg
NOAEL (Canidae; chronic, duration: 1 years, body weight): 27 mg/kg-day
NOAEL (Canidae; short-term, duration: 28 days, clinical chemistry): 6 mg/kg-day
LC50 (Cyprinus carpio): > 100 mg/L
LEL (Aphidius rhopalosiphi): 480 g/ha
NOEL (Anas platyrhynchos): 450 mg/kg
LD50 (Anas platyrhynchos; mortality): 1420 mg/kg
NOEC (Zea sp.): 2580 g/ha
NOAEL (Homo sapiens): 0.5 mg/kg-day
NOAEL [1]: 22.8 mg/kg-day
LC50 (Tagia sp.; acute, duration: 14 days, mortality): > 60000 g/ha
NOEC (Tagia sp.; chronic/long-term, duration: 8 weeks, reproduction): ≥ 200 mg/kg
NOEC (Daphnia magna): 67 mg/L
LD50 (Apis mellifera): > 100 µg/piece
LD50 (Colinus virginianus; duration: 8 days, diet): > 450 mg/kg
LD50 (Colinus virginianus): 764 mg/kg
NOEL (Colinus virginianus; short-term, duration: 8 days, diet): > 530 mg/kg-day
NOEL (Coturnix japonica): 159 mg/kg-day
NOEC (Landoltia sp.): < 0.1 mg/L
NOEC (Pimephales promelas): 43 mg/L
